“Also recorded” adds a separate entry of the source. Blank lines part the entries; values can stand above or below the compound they belong to.
What was measured:
ERα and ERβ = conditions: cited from earlier work
[1] = system: mammary and uterine tissue; conditions: rat, in vivo; cited from earlier work
[2] = system: MCF-7 breast cancer cells; test: MCF-7 xenograft under kidney capsule of nude mice, tumor growth; type: in vivo; conditions: 30 days; for tumor growth of MCF-7 grafts: subcutaneous osmotic pump, E2 0.4 mg, liquiritigenin 2 mg
Protocol: (§1) MCF-7 (250,000) cells were aggregated in suspension and then resuspended in 200 μL neutralized collagen, as previously described (Parmar et al., Endocrinology 143:4886-4896 (2002). The cells were then grafted under the kidney capsule of nude mice as described and illustrated in detail at: http://mammary.nih.gov/tools/mousework/Cunha001/index.html. Five mice per group were treated with a continuous infusion using osmotic pumps (Alzet, Cupertino, Calif.) containing vehicle, E2 (0.4 mg) or liquiritigenin (2 mg) that infused 2.5 μl/h for 1 month. After one month of treatment, the tumors and uteri were removed and analyzed. These animal studies were carried out with approval from the University of California, San Francisco Committee on Animal Research. The major concern with estrogens for menopausal symptoms is the proliferation of breast and endometrial cells causing an increased risk for breast and uterine cancer. To determine if liquiritigenin has a proliferative effect on breast cancer and endometrial cells, MCF-7 breast cancer cells were grafted under the kidney capsule of nude mice. Using a subcutaneous osmotic pump designed to deliver a steady dose of drug, the mice were treated for 30 days with vehicle, E2, or liquiritigenin.

[3] = molecular target: T1, thyroid hormone receptor β1 (TR) (Homo sapiens, UniProt P10828); test: F2-tkLuc transfection assay with thyroid hormone receptor β1 in U2OS cells; conditions: 2.5 μM, 18 h
T1 sequence (P10828 1-461): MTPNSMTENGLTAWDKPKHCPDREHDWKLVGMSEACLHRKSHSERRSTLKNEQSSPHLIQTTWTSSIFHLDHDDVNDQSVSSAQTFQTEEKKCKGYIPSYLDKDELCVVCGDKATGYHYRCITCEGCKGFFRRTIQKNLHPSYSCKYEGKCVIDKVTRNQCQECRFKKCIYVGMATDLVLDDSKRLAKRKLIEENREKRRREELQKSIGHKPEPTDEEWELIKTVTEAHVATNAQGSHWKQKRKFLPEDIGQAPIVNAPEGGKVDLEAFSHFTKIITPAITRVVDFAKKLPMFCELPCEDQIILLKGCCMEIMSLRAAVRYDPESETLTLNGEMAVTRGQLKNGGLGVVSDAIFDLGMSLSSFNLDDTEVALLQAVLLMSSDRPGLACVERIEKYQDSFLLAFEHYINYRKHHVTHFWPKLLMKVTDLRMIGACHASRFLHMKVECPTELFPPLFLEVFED

[4] = molecular target: T2, progesterone receptor B (PR) (Homo sapiens, UniProt P06401); test: TAT3-luciferase transfection assay with progesterone receptor B in U2OS cells; conditions: 2.5 μM, 18 h
T2 sequence (P06401 1-933): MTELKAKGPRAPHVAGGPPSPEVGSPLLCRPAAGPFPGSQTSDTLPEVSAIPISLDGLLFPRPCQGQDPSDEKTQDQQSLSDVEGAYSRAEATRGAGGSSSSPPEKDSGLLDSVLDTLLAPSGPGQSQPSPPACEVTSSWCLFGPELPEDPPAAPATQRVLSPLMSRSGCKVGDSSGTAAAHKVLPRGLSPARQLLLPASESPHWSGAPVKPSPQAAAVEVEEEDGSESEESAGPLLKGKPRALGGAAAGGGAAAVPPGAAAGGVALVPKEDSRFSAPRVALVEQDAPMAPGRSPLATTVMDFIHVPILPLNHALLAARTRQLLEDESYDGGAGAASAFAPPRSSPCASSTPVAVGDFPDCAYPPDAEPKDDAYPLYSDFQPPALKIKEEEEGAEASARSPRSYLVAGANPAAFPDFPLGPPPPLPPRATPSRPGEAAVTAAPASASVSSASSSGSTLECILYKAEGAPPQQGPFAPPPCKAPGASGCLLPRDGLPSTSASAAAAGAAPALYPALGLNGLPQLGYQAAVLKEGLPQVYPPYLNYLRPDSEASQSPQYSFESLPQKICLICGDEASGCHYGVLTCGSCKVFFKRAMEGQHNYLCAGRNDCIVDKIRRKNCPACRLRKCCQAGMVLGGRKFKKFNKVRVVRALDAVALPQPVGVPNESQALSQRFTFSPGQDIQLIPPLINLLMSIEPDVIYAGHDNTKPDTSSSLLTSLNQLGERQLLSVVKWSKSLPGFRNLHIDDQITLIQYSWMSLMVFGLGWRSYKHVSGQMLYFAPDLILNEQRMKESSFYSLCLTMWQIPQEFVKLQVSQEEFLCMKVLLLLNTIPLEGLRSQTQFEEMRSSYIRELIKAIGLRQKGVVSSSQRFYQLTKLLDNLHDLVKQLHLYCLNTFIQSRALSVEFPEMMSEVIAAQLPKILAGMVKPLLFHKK

androgen receptor (AR) = molecular target: T3, androgen receptor (AR) (Homo sapiens, UniProt P10275); test: TAT3-luciferase transfection assay with androgen receptor in U2OS cells; conditions: 2.5 μM, 18 h
T3 sequence (P10275 1-920): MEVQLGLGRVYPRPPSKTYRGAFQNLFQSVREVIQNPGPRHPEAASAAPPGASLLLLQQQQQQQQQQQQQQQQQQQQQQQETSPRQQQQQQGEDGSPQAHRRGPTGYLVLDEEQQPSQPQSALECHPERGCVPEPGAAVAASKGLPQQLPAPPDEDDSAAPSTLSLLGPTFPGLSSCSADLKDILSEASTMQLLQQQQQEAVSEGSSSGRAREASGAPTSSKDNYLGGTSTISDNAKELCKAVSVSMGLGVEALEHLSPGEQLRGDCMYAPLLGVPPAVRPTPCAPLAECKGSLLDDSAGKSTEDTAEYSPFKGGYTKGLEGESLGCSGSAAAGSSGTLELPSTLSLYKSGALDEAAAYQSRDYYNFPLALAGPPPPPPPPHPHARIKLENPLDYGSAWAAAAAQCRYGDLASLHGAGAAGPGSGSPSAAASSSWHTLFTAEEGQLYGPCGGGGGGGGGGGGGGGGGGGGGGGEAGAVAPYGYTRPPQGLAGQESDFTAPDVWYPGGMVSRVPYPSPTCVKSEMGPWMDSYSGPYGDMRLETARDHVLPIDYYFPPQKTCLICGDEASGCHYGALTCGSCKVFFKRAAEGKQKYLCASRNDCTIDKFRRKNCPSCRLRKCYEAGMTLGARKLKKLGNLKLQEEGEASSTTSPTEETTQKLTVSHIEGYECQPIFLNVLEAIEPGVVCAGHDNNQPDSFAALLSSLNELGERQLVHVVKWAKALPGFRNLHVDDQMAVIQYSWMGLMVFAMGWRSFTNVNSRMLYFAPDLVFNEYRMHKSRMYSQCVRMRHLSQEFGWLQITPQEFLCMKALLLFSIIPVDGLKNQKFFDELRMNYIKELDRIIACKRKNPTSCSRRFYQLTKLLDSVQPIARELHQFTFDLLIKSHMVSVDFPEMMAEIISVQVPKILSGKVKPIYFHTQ

uterus = test: MCF-7 xenograft study in nude mice, uterine horn mass; type: in vivo; conditions: osmotic pump, 30 days, E2 0.4 mg, liquiritigenin 2 mg
Protocol: as §1

[5] = molecular target: T4, glucocorticoid receptor (GR) (Homo sapiens, UniProt P04150); test: MMTV-luciferase transfection assay with glucocorticoid receptor in U2OS cells; conditions: 2.5 μM, 18 h
T4 sequence (P04150 1-777): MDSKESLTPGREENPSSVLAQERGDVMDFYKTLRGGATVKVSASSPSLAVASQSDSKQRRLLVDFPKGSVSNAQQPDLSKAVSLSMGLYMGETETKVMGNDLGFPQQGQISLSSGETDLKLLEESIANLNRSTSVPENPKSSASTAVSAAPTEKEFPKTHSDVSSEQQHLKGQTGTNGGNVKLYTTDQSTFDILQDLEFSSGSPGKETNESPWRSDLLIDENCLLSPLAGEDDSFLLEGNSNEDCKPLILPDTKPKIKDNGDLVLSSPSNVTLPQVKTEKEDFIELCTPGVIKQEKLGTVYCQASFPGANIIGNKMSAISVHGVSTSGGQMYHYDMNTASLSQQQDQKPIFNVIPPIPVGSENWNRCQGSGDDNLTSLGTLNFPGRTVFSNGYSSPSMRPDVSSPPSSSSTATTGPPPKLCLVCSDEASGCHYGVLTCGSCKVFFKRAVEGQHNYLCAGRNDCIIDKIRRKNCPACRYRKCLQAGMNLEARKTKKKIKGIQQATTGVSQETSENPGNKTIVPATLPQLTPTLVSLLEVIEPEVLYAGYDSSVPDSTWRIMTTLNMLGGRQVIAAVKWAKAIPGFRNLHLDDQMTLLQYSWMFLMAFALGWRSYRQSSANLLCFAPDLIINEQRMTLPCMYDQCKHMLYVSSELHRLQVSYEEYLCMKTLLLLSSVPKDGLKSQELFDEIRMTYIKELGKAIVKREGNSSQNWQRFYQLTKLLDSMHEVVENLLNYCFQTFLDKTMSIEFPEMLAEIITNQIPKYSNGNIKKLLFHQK

ERα [6] = molecular target: T5, ERα (Homo sapiens, UniProt P03372); test: Real-time PCR of native target gene mRNA in U2OS-ERα cells; type: cell-based; set-up: expressed in transfected cells; conditions: 1 μM
T5 sequence (P03372 1-595): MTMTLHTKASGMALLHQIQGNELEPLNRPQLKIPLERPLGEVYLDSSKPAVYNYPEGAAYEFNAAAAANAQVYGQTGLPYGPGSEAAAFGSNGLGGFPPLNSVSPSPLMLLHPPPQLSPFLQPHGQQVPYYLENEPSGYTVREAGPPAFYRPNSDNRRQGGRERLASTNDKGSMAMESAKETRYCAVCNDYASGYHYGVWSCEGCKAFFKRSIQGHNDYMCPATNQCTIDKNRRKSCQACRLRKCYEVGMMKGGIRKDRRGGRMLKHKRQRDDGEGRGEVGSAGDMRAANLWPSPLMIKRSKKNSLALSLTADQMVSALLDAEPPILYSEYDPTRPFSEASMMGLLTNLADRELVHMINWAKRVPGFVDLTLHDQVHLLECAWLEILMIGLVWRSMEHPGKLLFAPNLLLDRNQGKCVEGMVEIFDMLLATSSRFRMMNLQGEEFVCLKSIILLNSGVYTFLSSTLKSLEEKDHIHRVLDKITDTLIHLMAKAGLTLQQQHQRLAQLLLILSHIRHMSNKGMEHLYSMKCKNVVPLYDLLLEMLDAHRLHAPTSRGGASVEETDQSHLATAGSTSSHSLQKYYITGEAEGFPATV

ERα [7] = molecular target: T5, ERα; test: Native ER regulatory element (CECR6, NKG2E, NKD) tk-Luc transfection assay with ERα; type: cell-based; set-up: expressed in transfected cells; host or cells: U2OS
From the text: In addition to the traditional ERE, it is important to determine if liquiritigenin selectivity activates ERβ in elements derived from native ER target genes. ER regulatory elements from the cat eye syndrome chromosome region candidate 6 (CECR6), killer cell lectin-like receptor (NKG2E) and the naked cuticule homolog (NKD) genes that are activated by E2 Levy et al., Endocrinology doi:10.1210/en.2006-1632 (2007)) were used. CECR6-tk-Luc (A), NKG2E-tk-Luc (B), and NKD-tk-Luc (C) were transfected into U2OS cells with expression vectors for human ERα or ERβ. […] Liquiritigenin produced a dose-dependent activation of CECR6, NKG2E, and NKD with ERβ but not with ERα (FIGS. 4A, 4B, 4C, respectively). The cells were then treated for increasing times with liquiritigenin.

[8] = U2OS cells, 18 h, increasing amounts

SMILES: O=c1c(-c2ccc(O)cc2)coc2cc(O)cc(O)c12 [genistein]
- binding affinity to ERβ compared to ERα (ERα and ERβ): higher affinity; also recorded: binds better to ERβ than ERα

SMILES: C=Cc1cc(O)cc2nc(-c3ccc(O)c(F)c3)oc12 [ERβ-041]
- proliferative effects on mammary and uterine tissue [1]: does not elicit any proliferative effects

SMILES: C[C@]12CC[C@@H]3c4ccc(O)cc4CC[C@H]3[C@@H]1CC[C@@H]2O [E2, 17β-Estra-1,3,5(10)-triene-3,17-diol, reference compound]
- tumor growth of MCF-7 grafts [2]: Large tumors developed; also recorded: causes the formation of large tumors
- binding affinity to ERβ compared to ERα (ERα and ERβ): equal affinity

- activation of thyroid hormone receptor (luciferase) [3]: did not activate
- activation of progesterone receptor B (luciferase) [4]: did not activate
- activation of androgen receptor (luciferase) (androgen receptor (AR)): did not activate
- uterine horn mass (uterus): did not increase uterine horn mass
- uterine horn mass (uterus; listed as liquirtigenin): does not increase the size of the uterus
- activation of glucocorticoid receptor (luciferase) [5]: did not activate
- activation of endogenous genes in U2OS-ERα cells (ERα [6]): does not activate
- activation of multiple ER regulatory elements (ERα [7]; 1 μM, ERα): does not activate
- activation of CECR6-tk-Luc with ERα (ERα [7]; [8]): not with ERα
- activation of NKD-tk-Luc with ERα (ERα [7]; [8]): not with ERα
SMILES: O=C1C[C@@H](c2ccc(O)cc2)Oc2cc(O)ccc21 [liquiritigenin, (2S)-7-hydroxy-2-(4-hydroxyphenyl)-2,3-dihydro-4H-1-benzopyran-4-one]
- weight of the tumors compared to the control mice ([2]; osmotic pump, 2 mg): no differences in the weight of the tumors
- tumor growth of MCF-7 grafts [2]: essentially no tumor growth; also recorded: does not stimulate breast cancer tumor formation
